Reference: patent publication US10526325B2, “Bicyclic heterocyclic derivatives” (Merck Patent GmbH, priority 2015, dated 2020)

Tests used:
[1] = target: human PDHK2 (12-407) (Homo sapiens (Human), UniProt Q15119); assay: Isothermal titration calorimetry (ITC) binding; conditions: ITC at 30° C., pH 7.5
How it was run: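 Tag-free human PDHK2 (12-407) from E. coli, 50 μM, titrated into 5 μM compound at 30° C in 20 mM HEPES, 135 mM KCl, 1 mM TCEP, 2 mM MgCl2, 15 mM NaH2PO4, pH 7.5, ≤1% DMSO. One-site fit gave KA, ΔH^obs and N after dilution-heat correction. Protein and compound concentrations were normalised to 1:1 stoichiometry against a standard inhibitor.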

[2] = tested on: PDH-E1alpha (pSer300) in HEK293T cells; assay: Cellular immunofluorescence assay, PDH-E1alpha (pSer300) in HEK293T cells; type: cell-based, human; conditions: Homo sapiens, HEK-293T, 5 hours incubation, anti-PDH-E1alpha (pSer300) immunofluorescence, read-out: IC50 (cell data)
How it was run: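 Human HEK293T cells exposed to compound for 5 h, then fixed, permeabilised and immunostained for phospho-Ser300 PDH-E1α with Alexa 488 secondary and Hoechst counterstain. Fluorescence read by laser scanning cytometry. Data normalized to a pharmacological inhibitor control for dose-response curves.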

[3] = target: PDHK2 (Homo sapiens (Human), UniProt Q15119); assay: Biochemical activity testing of PDHK2: PDC inactivation assay; conditions: human rec PDHK2, porcine heart PDC, 5 μM ATP, read-out: IC50 PDHK2 (enzyme assay)
How it was run: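 Recombinant human PDHK2 (137 nM final) and porcine heart PDC (20 mU/ml) preincubated with compound 30 min at RT in pH 7.0 phosphate kinase buffer, then 5 μM ATP 30 min at 37° C. PDC activity read as NADH fluorescence increase (Ex 340/Em 450 nm) over 45 min with pyruvate, NAD and CoA; 3 mM DCA defined zero; IC50 determined.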

Row | Kd [1] [nM] | IC50 [3] [nM] | SMILES | IC50 [2] [nM]
1 | 300 to 3000 | 300 to 3000 | CC1CN(C(=O)[C@@](C)(O)C(F)(F)F)Cc2cn(-c3ccc(F)cc3)nc21 (stereo partly drawn) [Compound A13, (2R)-3,3,3-trifluoro-1-[2-(4-fluorophenyl)-7-methyl-6,7-dihydro-4H-pyrazolo[4,3-c]pyridin-5-yl]-2-hydroxy-2-methyl-propan-1-one] | 3000 to 50000
2 | < 300 | 300 to 3000 | C[C@@](O)(C(=O)N1CCc2c(nnn2-c2ccc(F)cc2)C1)C(F)(F)F [Compound A47, (R)-3,3,3-Trifluoro-1-[1-(4-fluoro-phenyl)-1,4,6,7-tetrahydro-[1,2,3]triazolo[4,5-c]pyridin-5-yl]-2-hydroxy-2-methyl-propan-1-one] | 3000 to 50000
